According to patent US12465050B2, “Compositions comprising a pyridine carboxylate herbicide and protoporphyrinogen oxidase (protox) inhibitor herbicides” (priority 2018, dated 2025):

Tests used:
Assay type in all cases: in vivo
[1] = test system: Cirsium arvense (Canadian thistle); test: Greenhouse postemergence herbicidal effect on CIRAR
Source text: (§1) Greenhouse Trial Methodology—Evaluation of Postemergence Herbicidal Effect
(§2) Seeds of the desired test plant species were planted in a 90:10% v/v (volume/volume) mixture of PRO-MIX® BX (Premier Tech Horticulture, Quakertown, Pa., USA) and PROFILE® GREENS GRADE™ (Profile Products LLC, Buffalo Grove, Ill., USA) planting mixture, which typically has a pH of 5.2 to 6.2 and an organic matter content of at least 50 percent, in plastic pots with a surface area of 103.2 square centimeters (cm^2). In some aspects or embodiments, to help ensure good germination and healthy plants, a fungicide treatment and/or other chemical or physical treatment was applied. The plants were grown for 7-36 days (d) in a greenhouse with an approximate 14-hour (h) photoperiod which was maintained at about 23° C. during the day and 22° C. during the night. Nutrients and water were added on a regular basis and supplemental lighting was provided with overhead metal halide 1000-Watt lamps as necessary. The plants were employed for testing when they reached the second or third true leaf stage.
(§3) Emulsifiable concentrates of each of each pyridine carboxylate herbicide (Compound A or Compound B) were prepared at 100 grams acid equivalent per liter (g ae/L). The emulsifiable concentrates also included a safener, cloquintocet mexyl, at 120 grams active ingredient per liter (g ai/L). An aliquot of each emulsifiable concentrate was placed in a 25 mL glass vial and diluted with an aqueous mixture of 1.25% (v/v) ACTIROB® B esterified rapeseed oil (Bayer Crop Science, Research Triangle Park, N.C., USA) or MSO® Concentrate with LECI-TECH® methylated soybean oil (Loveland Products, Loveland, Colo., USA) to obtain concentrated stock solutions at the highest application rate for each herbicide, based upon a 12 milliliter (mL) application volume at a rate of 187 liters per hectare (L/ha). The concentrated stock solutions were further diluted with an aqueous mixture of 1.25% v/v ACTIROB® B or MSO® Concentrate with LECI-TECH® to obtain stock solutions at reduced application rates for each herbicide. Spray solutions of the herbicide combinations (Compound A or Compound B plus PROTOX inhibitor herbicide) were prepared by adding weighed amounts or aliquots of the PROTOX inhibitor herbicides to the stock solutions of Compound A or Compound B to form 12-mL spray solutions in two-way combinations.
(§4) The spray solutions were applied to the plant material with an overhead Mandel track sprayer equipped with 8002E nozzles calibrated to deliver 187 L/ha over an application area of 0.503 square meters (m^2) at a spray height of 18 inches (43 centimeters (cm)) above the average plant canopy. Control plants were sprayed in the same manner with the solvent blank. All pyridine carboxylate herbicide (component a) application rates are given as “g ae/ha” and all PROTOX inhibitor herbicide (component b) application rates are given as “g ai/ha.”
(§5) The treated plants and control plants were placed in a greenhouse as described above and watered by sub-irrigation to prevent wash-off of the test compounds. After 20-22 d, the condition of the test plants as compared with that of the control plants was determined visually and scored on a scale of 0 to 100 percent where 0 corresponds to no injury and 100 corresponds to complete kill.

[2] = test system: Setaria faberi (giant foxtail); test: Greenhouse postemergence herbicidal effect on SETFA
Source text: as §1, §2, §3, §4, §5

[3] = test system: Viola tricolor (wild pansy); test: Greenhouse postemergence herbicidal effect on VIOTR
Source text: as §1, §2, §3, §4, §5

[4] = test system: Hordeum vulgare (spring barley); test: Greenhouse postemergence phytotoxicity on crop HORVS
Source text: as §1, §2, §3, §4, §5

[5] = test system: Polygonum convolvulus (wild buckwheat); test: Greenhouse postemergence herbicidal effect on POLCO
Source text: as §1, §2, §3, §4, §5

[6] = test system: Sinapis arvensis (wild mustard); test: Greenhouse postemergence herbicidal effect on SINAR
Source text: as §1, §2, §3, §4, §5

[7] = test system: Brassica napus (spring rape); test: Greenhouse postemergence herbicidal effect on BRSNN
Source text: as §1, §2, §3, §4, §5

[8] = test system: Chenopodium album L. (common lambsquarters); test: Greenhouse postemergence herbicidal effect on CHEAL
Source text: as §1, §2, §3, §4, §5

[9] = test system: Triticum aestivum (spring wheat); test: Greenhouse postemergence phytotoxicity on crop TRZAS
Source text: as §1, §2, §3, §4, §5

[10] = test system: Salsola kali (Russian thistle); test: Greenhouse postemergence herbicidal effect on SASKR
Source text: as §1, §2, §3, §4, §5

Kochia scoparia (kochia) = test: Greenhouse postemergence herbicidal effect on KCHSC
Source text: as §1, §2, §3, §4, §5

[11] = test system: Matricaria chamomilla (wild chamomile); test: Greenhouse postemergence herbicidal effect on MATCH; details: Compound A 0, Pyraflufen-ethyl 6 g/ha
Source text: as §1, §2, §3, §4, §5

[12] = test system: Amaranthus retroflexus (pigweed); test: Greenhouse postemergence herbicidal effect on AMARE
Source text: as §1, §2, §3, §4, §5

[13] = test system: Brassica napus (winter rape); test: Greenhouse postemergence herbicidal effect on BRSNW; details: Compound A 0, Pyraflufen-ethyl 6 g/ha
Source text: as §1, §2, §3, §4, §5

[14] = test system: Rumex obtusifolius (broad-leaf dock); test: Greenhouse postemergence herbicidal effect on RUMOB; details: Compound A 0, Saflufenacil 11.2 g/ha
Source text: as §1, §2, §3, §4, §5

[15] = test system: Sorghum vulgare (sorghum); test: Greenhouse postemergence herbicidal effect on SORVU; details: Compound A 0, Saflufenacil 11.2 g/ha
Source text: as §1, §2
(§6) Emulsifiable concentrates of each of each pyridine carboxylate herbicide (Compound A or Compound B) were prepared at 100 grams acid equivalent per liter (g ae/L). The emulsifiable concentrates also included a safener, cloquintocet mexyl, at 120 grams active ingredient per liter (g ai/L). […]
as §5

[16] = test system: Abutilon theophrasti (velvetleaf); test: Greenhouse postemergence herbicidal effect on ABUTH; details: Compound A 0, Saflufenacil 11.2 g/ha
Source text: as §1, §2, §6, §5

[17] = test system: Cyperus esculentus (nutsedge); test: Greenhouse postemergence herbicidal effect on CYPES; details: Compound A 0, Saflufenacil 11.2 g/ha
Source text: as §1, §2, §6, §5

Zea mays (maize) = test: Greenhouse postemergence phytotoxicity on crop ZEAMX; details: Compound A 0, Saflufenacil 11.2 g/ha
Source text: as §1, §2, §6, §5

[18] = Compound B 7.5, Saflufenacil 0 g/ha
[19] = Compound B 10, Saflufenacil 0 g/ha
[20] = Compound A 0, Pyraclonil 42.5 g/ha
[21] = Compound A 0, Pyraflufen-ethyl 6 g/ha
[22] = Compound A 0, Saflufenacil 11.2 g/ha
[23] = Compound B 0, Saflufenacil 1 g/ha

C#CCOC(=O)c1nc(-c2ccc3cc[nH]c3c2F)c(F)c(N)c1Cl [Compound B, propargyl 4-amino-3-chloro-5-fluoro-6-(7-fluoro-1H-indol-6-yl)pyridine-2-carboxylate]
% visual injury, Obs [1, 18]: 45%
% visual injury, Obs [1, 19]: 45%
% visual injury, Obs [2, 18]: 70%
% visual injury, Obs [2, 19]: 55%
% visual injury, Obs [3, 18]: 10%
% visual injury, Obs [3, 19]: 40%

C#CCN(C)c1c(C#N)cnn1-c1nn2c(c1Cl)CCCC2 [Pyraclonil, 1-(3-chloro-4,5,6,7-tetrahydropyrazolo[1,5-a]pyridin-2-yl)-5-[methyl-2-propynylamino]-1H-pyrazole-4-carbonitrile, reference compound]
% visual injury, Obs [4, 20]: 28%
% visual injury, Obs [5, 20]: 20%
% visual injury, Obs [6, 20]: 15%
% visual injury, Obs [7, 20]: 23%
% visual injury, Obs [8, 20]: 15%
% visual injury, Obs [9, 20]: 3%
% visual injury, Obs [10, 20]: 78%
% visual injury, Obs (Kochia scoparia (kochia); [20]): 15%

CCOC(=O)COc1cc(-c2nn(C)c(OC(F)F)c2Cl)c(F)cc1Cl [Pyraflufen-ethyl, ethyl 2-chloro-5-[4-chloro-5-(difluoromethoxy)-1-methyl-1H-pyrazol-3-yl]-4-fluorophenoxyacetate, reference compound]
% visual injury, Obs [11]: 0%
% visual injury, Obs [12, 21]: 18%
% visual injury, Obs [4, 21]: 0%
% visual injury, Obs [5, 21]: 0%
% visual injury, Obs [6, 21]: 0%
% visual injury, Obs [8, 21]: 5%
% visual injury, Obs [9, 21]: 0%
% visual injury, Obs [1, 21]: 10%
% visual injury, Obs [13]: 0%
% visual injury, Obs [10, 21]: 5%
% visual injury, Obs (Kochia scoparia (kochia); [21]): 0%

CC(C)N(C)S(=O)(=O)NC(=O)c1cc(-n2c(=O)cc(C(F)(F)F)n(C)c2=O)c(F)cc1Cl [Saflufenacil, 2-chloro-5-[3,6-dihydro-3-methyl-2,6-dioxo-4-(trifluoromethyl)-1(2H)-pyrimidinyl]-4-fluoro-N-[[methyl(1-methylethyl)-amino]sulfonyl]benzamide, reference compound]
% visual injury, Obs [14]: 100%
% visual injury, Obs [12, 22]: 100%
% visual injury, Obs [15]: 33%
% visual injury, Obs [16]: 98%
% visual injury, Obs [7, 22]: 90%
% visual injury, Obs [17]: 28%
% visual injury, Obs [9, 22]: 10%
% visual injury, Obs (Zea mays (maize)): 45%
% visual injury, Obs [1, 23]: 80%
% visual injury, Obs [2, 22]: 53%
% visual injury, Obs [2, 23]: 13%
% visual injury, Obs [3, 23]: 55%
